These results are taken from patent US10010589B2, “Modified therapeutic agents, stapled peptide lipid conjugates, and compositions thereof” (priority 2013, dated 2018).

As a reminder, the EC50 is the concentration at which the effect is half-maximal.

The target of assay [1] is T1, human glucagon-like peptide 1 receptor (GLP-1R) (Homo sapiens, UniProt P43220).
T1 construct: expressed in transfected cells
In words: cell-based. How it is done:
(§1) HEK293 cells were infected with lent virus encoding firefly luciferase gene under the control of CRE promoter, as described in the manual (Qiagen, Netherlands) and then were selected using 1 μg/mL puromycin (Life technologies, Carlsbad) for 1 week. The survived cells were named as CRE-HEK293, expanded and then transfected with a G418 selective mammalian expression plasmid encoding human GCGR, GLP-1R, GIPR or GLP-2R. In brief, GCGR, GLP-1R, GIPR, or GLP-2R plasmid was transfected into CRE-HEK293 cells using Lipofectamine 2000 and selected with 400 μg/mL geneticin (Life technologies, Carlsbad, Calif.). Single colony stable cell lines overexpressing both CRE-luciferase and GCGR, GLP-1R, GIPR, or GLP-2R were then established for in vitro activity assays. These four stable cell lines were named as HEK293-GCGR-CRE, HEK293-GLP-1R-CRE, HEK293-GIPR-CRE, and HEK293-GLP-2R-CRE.
Cells were treated with different peptides in a dose dependent manner. On the next day, 10 μl of Bright-Glo reagent (Promega, Madison, Wis.) were added into each well and firefly luminescence was determined using an Envision multilabel plate reader (PerkinElmer, Waltham, Mass.). EC50 of each peptide was calculated using GraphPad Prism 6 software (GraphPad, San Diego, Calif.).

For assay [2], the target named is T2, human glucagon receptor (GCGR) (Homo sapiens, UniProt P47871).
T2 construct: expressed in transfected cells
Put plainly: GCGR CRE luciferase assay (receptor-mediated cAMP synthesis). The assay is classed as cell-based. How it is done: (§2) CREB responsive luciferase stable HEK 293 cell line overexpressing human glucagon receptor (GCGR), glucagon-like peptide 1 receptor (GLP-1R), Glucose-dependent insulinotropic polypeptide receptor (GIPR), or Glucagon-like peptide 2 receptor (GLP-2R) was generated as follows.
as §1
HEK293-GCGR-CRE, HEK293-GLP-1R-CRE, HEK293-GIPR-CRE, and HEK293-GLP-2R-CRE cells were seeded in a white 384-well plate at a density of 5,000 cells per well and cultured for 24 hours. Cells were treated with different peptides in a dose dependent manner. On the next day, 10 μl of Bright-Glo reagent (Promega, Madison, Wis.) were added into each well and firefly luminescence was determined using an Envision multilabel plate reader (PerkinElmer, Waltham, Mass.). EC50 of each peptide was calculated using GraphPad Prism 6 software (GraphPad, San Diego, Calif.).

The target of assay [3] is T3, human Glucose-dependent insulinotropic polypeptide receptor (GIPR) (Homo sapiens, UniProt P48546).
T3 construct: expressed in transfected cells
T3 sequence (P48546 22-466): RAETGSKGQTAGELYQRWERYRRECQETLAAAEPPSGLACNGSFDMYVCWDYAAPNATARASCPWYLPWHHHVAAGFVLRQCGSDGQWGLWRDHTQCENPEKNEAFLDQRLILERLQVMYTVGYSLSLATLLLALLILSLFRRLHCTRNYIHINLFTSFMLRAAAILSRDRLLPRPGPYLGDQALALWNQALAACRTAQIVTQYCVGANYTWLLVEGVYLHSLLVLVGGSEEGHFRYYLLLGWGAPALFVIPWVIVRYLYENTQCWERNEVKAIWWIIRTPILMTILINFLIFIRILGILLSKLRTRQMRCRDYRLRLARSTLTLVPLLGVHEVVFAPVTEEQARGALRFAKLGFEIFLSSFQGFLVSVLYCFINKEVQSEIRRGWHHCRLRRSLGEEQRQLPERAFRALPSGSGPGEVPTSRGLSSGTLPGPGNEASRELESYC
Put plainly: GIPR CRE luciferase assay (receptor-mediated cAMP synthesis). The assay is classed as cell-based. How it is done: as §2
as §1, with “Single colony stable cell lines overexpressing both CRE-luciferase and GCGR, GLP-1R, GIPR, or GLP-2R were then established for in vitro activity assays. These four stable cell lines were named as HEK293-GCGR-CRE, HEK293-GLP-1R-CRE, HEK293-GIPR-CRE, and HEK293-GLP-2R-CRE.” left out
HEK293-GCGR-CRE, HEK293-GLP-1R-CRE, HEK293-GIPR-CRE, and HEK293-GLP-2R-CRE cells were seeded in a white 384-well plate at a density of 5,000 cells per well and cultured for 24 hours. […] On the next day, 10 μl of Bright-Glo reagent (Promega, Madison, Wis.) were added into each well and firefly luminescence was determined using an Envision multilabel plate reader (PerkinElmer, Waltham, Mass.). EC50 of each peptide was calculated using GraphPad Prism 6 software (GraphPad, San Diego, Calif.).

Where [4] appears, read: HEK293-GLP-1R-CRE cells, luciferase readout, Table 6, read-out: GLP-1R (EC50).

Read-outs that look alike come from different tables or passages of the source. *1 amine or outer side, *2 acyl side, *3 side chain or, on linkers, in order; H or OH if unused. Where a SMILES comes first, the peptide text is derived from it. Bridges are numbered along the chain shown (N, C = ends). [ ]: non-standard residue; d: D form. CH2CONH(CH2)4NHCOCH2 = O=C(C[*:1])NCCCCNC(=O)C[*:2]; CH2CONHCH2CH2NHCOCH2 = O=C(C[*:1])NCCNC(=O)C[*:2]; X1 = O=C(c1ccc(C[*:1])cc1)c1ccc(C[*:2])cc1

T1 sequence (P43220 24-463): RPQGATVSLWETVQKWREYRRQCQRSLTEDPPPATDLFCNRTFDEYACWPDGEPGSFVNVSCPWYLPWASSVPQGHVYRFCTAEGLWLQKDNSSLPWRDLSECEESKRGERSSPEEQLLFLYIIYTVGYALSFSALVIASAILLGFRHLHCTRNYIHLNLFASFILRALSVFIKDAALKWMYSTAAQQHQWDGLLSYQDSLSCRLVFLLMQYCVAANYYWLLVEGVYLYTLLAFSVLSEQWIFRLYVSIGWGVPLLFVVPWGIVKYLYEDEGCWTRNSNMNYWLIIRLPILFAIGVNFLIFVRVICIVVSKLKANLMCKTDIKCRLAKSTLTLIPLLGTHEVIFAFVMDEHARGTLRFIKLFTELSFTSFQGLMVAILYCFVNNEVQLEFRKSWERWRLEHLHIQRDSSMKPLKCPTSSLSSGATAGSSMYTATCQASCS
T2 sequence (P47871 26-477): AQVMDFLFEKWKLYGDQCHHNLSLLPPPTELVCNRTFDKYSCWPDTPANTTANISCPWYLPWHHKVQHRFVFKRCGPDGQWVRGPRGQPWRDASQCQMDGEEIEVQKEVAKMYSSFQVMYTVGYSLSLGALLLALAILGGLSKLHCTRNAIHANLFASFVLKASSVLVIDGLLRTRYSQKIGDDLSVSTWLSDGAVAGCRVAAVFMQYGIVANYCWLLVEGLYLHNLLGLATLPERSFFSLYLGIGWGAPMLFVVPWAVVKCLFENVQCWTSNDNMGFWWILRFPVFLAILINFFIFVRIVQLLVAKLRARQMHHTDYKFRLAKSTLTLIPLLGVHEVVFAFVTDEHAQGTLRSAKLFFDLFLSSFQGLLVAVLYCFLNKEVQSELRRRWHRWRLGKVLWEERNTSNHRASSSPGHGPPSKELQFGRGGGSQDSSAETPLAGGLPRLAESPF

Turning to `CC[C@H](C)[C@H](NC(=O)[C@H](CC(N)=O)NC(=O)[C@H](CC(N)=O)NC(=O)[C@H](CCCNC(=N)N)NC(=O)[C@H](CC(N)=O)NC(=O)[C@H](CCCNC(=N)N)NC(=O)[C@H](CCCCN)NC(=O)[C@@H](NC(=O)[C@H](CC(N)=O)NC(=O)[C@H](CCSC)NC(=O)[C@H](CC(C)C)NC(=O)[C@H](Cc1c[nH]c2ccccc12)NC(=O)[C@@H]1CSCc2ccc(cc2)C(=O)c2ccc(cc2)CSC[C@H](NC(=O)[C@H](CCC(=O)O)NC(=O)[C@H](CC(=O)O)NC(=O)[C@H](CC(C)C)NC(=O)[C@H](Cc2ccc(O)cc2)NC(=O)[C@H](CCCCN)NC(=O)[C@H](CO)NC(=O)[C@H](Cc2ccc(O)cc2)NC(=O)[C@H](CC(=O)O)NC(=O)[C@H](CO)NC(=O)[C@@H](NC(=O)[C@H](Cc2ccccc2)NC(=O)[C@@H](NC(=O)CNC(=O)[C@H](CCC(N)=O)NC(=O)[C@@H](CO)NC(=O)[C@@H](N)Cc2c[nH]cn2)[C@@H](C)O)[C@@H](C)O)C(=O)N[C@@H](C)C(=O)N[C@@H](C)C(=O)N[C@@H](CCCCN)C(=O)N[C@@H](CCC(=O)O)C(=O)N[C@@H](Cc2ccccc2)C(=O)N[C@@H]([C@@H](C)CC)C(=O)N1)[C@@H](C)O)C(=O)N[C@@H](C)C(N)=O` [mTA21] (H-H[dS]QGTFTSDYSKYLDECAAKEFICWLMNTKRNRNNIA-NH2; linker 17-24 via X1), the EC50 in assay [1] (setting [4]) is 0.12 nM; in assay [2] it was 0.7 nM.
The corresponding values for `CC[C@H](C)[C@@H]1NC(=O)[C@H](Cc2ccccc2)NC(=O)[C@H](CCC(=O)O)NC(=O)[C@H](CCCCN)NC(=O)[C@H](C)NC(=O)[C@H](C)NC(=O)[C@@H](NC(=O)[C@H](CCC(=O)O)NC(=O)[C@H](CC(=O)O)NC(=O)[C@H](CC(C)C)NC(=O)[C@H](Cc2ccc(O)cc2)NC(=O)[C@H](CCCCN)NC(=O)[C@H](CO)NC(=O)[C@H](Cc2ccc(O)cc2)NC(=O)[C@H](CC(=O)O)NC(=O)[C@H](CO)NC(=O)[C@@H](NC(=O)[C@H](Cc2ccccc2)NC(=O)[C@@H](NC(=O)CNC(=O)[C@H](CCC(N)=O)NC(=O)[C@@H](CO)NC(=O)[C@@H](N)Cc2c[nH]cn2)[C@@H](C)O)[C@@H](C)O)CSCC(=O)NCCCCNC(=O)CSC[C@@H](C(=O)N[C@@H](Cc2c[nH]c3ccccc23)C(=O)N[C@@H](CC(C)C)C(=O)N[C@@H](CC(C)C)C(=O)N[C@@H](CCCNC(=N)N)C(=O)N[C@@H](C)C(N)=O)NC1=O` [mTA29] (H-H[dS]QGTFTSDYSKYLDECAAKEFICWLLRA-NH2; linker 17-24 via CH2CONH(CH2)4NHCOCH2) are 0.03 nM and 0.03 nM.
The like results for `CC[C@H](C)[C@H](NC(=O)[C@H](CC(N)=O)NC(=O)[C@H](CC(N)=O)NC(=O)[C@H](CCCNC(=N)N)NC(=O)[C@H](CC(N)=O)NC(=O)[C@H](CCCNC(=N)N)NC(=O)[C@H](CCCCN)NC(=O)[C@@H](NC(=O)[C@H](CC(N)=O)NC(=O)[C@H](CCSC)NC(=O)[C@H](CC(C)C)NC(=O)[C@H](Cc1c[nH]c2ccccc12)NC(=O)[C@@H]1CSCC(=O)NCCNC(=O)CSC[C@H](NC(=O)[C@H](CCC(=O)O)NC(=O)[C@H](CC(=O)O)NC(=O)[C@H](CC(C)C)NC(=O)[C@H](Cc2ccc(O)cc2)NC(=O)[C@H](CCCCN)NC(=O)[C@H](CO)NC(=O)[C@H](Cc2ccc(O)cc2)NC(=O)[C@H](CC(=O)O)NC(=O)[C@H](CO)NC(=O)[C@@H](NC(=O)[C@H](Cc2ccccc2)NC(=O)[C@@H](NC(=O)CNC(=O)[C@H](CCC(N)=O)NC(=O)[C@@H](CO)NC(=O)[C@@H](N)Cc2c[nH]cn2)[C@@H](C)O)[C@@H](C)O)C(=O)N[C@@H](C)C(=O)N[C@@H](C)C(=O)N[C@@H](CCCCN)C(=O)N[C@@H](CCC(=O)O)C(=O)N[C@@H](Cc2ccccc2)C(=O)N[C@@H]([C@@H](C)CC)C(=O)N1)[C@@H](C)O)C(=O)N[C@@H](C)C(N)=O` [mTA24] (H-H[dS]QGTFTSDYSKYLDECAAKEFICWLMNTKRNRNNIA-NH2; linker 17-24 via CH2CONHCH2CH2NHCOCH2) were, in that order, 0.2 nM and 3 nM.
As for `CC[C@H](C)[C@H](NC(=O)[C@H](CC(N)=O)NC(=O)[C@H](CC(N)=O)NC(=O)[C@H](CCCNC(=N)N)NC(=O)[C@H](CC(N)=O)NC(=O)[C@H](CCCNC(=N)N)NC(=O)[C@H](CCCCN)NC(=O)[C@@H](NC(=O)[C@H](CC(N)=O)NC(=O)[C@H](CCSC)NC(=O)[C@H](CC(C)C)NC(=O)[C@H](Cc1c[nH]c2ccccc12)NC(=O)[C@@H]1CSCC(=O)NCCCCNC(=O)CSC[C@H](NC(=O)[C@H](CCC(=O)O)NC(=O)[C@H](CC(=O)O)NC(=O)[C@H](CC(C)C)NC(=O)[C@H](Cc2ccc(O)cc2)NC(=O)[C@H](CCCCN)NC(=O)[C@H](CO)NC(=O)[C@H](Cc2ccc(O)cc2)NC(=O)[C@H](CC(=O)O)NC(=O)[C@H](CO)NC(=O)[C@@H](NC(=O)[C@H](Cc2ccccc2)NC(=O)[C@@H](NC(=O)CNC(=O)[C@H](CCC(=O)O)NC(=O)[C@@H](C)NC(=O)[C@@H](N)Cc2ccc(O)cc2)[C@@H](C)O)[C@@H](C)CC)C(=O)N[C@@H](C)C(=O)N[C@@H](C)C(=O)N[C@@H](CCCCN)C(=O)N[C@@H](CCC(=O)O)C(=O)N[C@@H](Cc2ccccc2)C(=O)N[C@@H]([C@@H](C)CC)C(=O)N1)[C@@H](C)O)C(=O)N[C@@H](C)C(N)=O` [mTA44] (H-Y[dA]EGTFISDYSKYLDECAAKEFICWLMNTKRNRNNIA-NH2; linker 17-24 via CH2CONH(CH2)4NHCOCH2), the half-maximal effective concentration (EC50) in assay [1] (HEK293-GLP-1R-CRE cells, luciferase readout, Table 8, read-out: GLP-1R (EC50)) is 9.7 nM; in assay [2], 1.6 nM; in assay [3] (HEK293-GIPR-CRE cells, luciferase readout, Table 8, read-out: GIP-R (EC50)), 0.04 nM.
In the case of `CC[C@H](C)[C@H](NC(=O)[C@H](CO)NC(=O)[C@H](Cc1ccc(O)cc1)NC(=O)[C@H](CC(=O)O)NC(=O)[C@H](CO)NC(=O)[C@@H](NC(=O)[C@H](Cc1ccccc1)NC(=O)[C@@H](NC(=O)CNC(=O)[C@H](CCC(=O)O)NC(=O)[C@@H](C)NC(=O)[C@@H](N)Cc1ccc(O)cc1)[C@@H](C)O)[C@@H](C)O)C(=O)N[C@@H](Cc1ccc(O)cc1)C(=O)N[C@@H](CC(C)C)C(=O)N[C@@H](CC(=O)O)C(=O)N[C@@H](CCCCN)C(=O)N[C@H]1CSCC(=O)NCCCCNC(=O)CSC[C@@H](C(=O)N[C@@H](Cc2c[nH]c3ccccc23)C(=O)N[C@@H](CC(C)C)C(=O)N[C@@H](CC(C)C)C(=O)N[C@@H](C)C(=O)NCC(=O)NCC(=O)N2CCC[C@H]2C(=O)N[C@@H](CO)C(=O)N[C@@H](CO)C(=O)NCC(=O)N[C@@H](C)C(=O)N2CCC[C@H]2C(=O)N2CCC[C@H]2C(=O)N2CCC[C@H]2C(=O)N[C@@H](CO)C(=O)N[C@@H](CCCCN)C(N)=O)NC(=O)[C@H](C(C)C)NC(=O)[C@H](Cc2ccccc2)NC(=O)[C@H](CCC(=O)O)NC(=O)[C@H](CCCCN)NC(=O)[C@H](C)NC(=O)[C@H](C)NC1=O` [mTA40] (H-Y[dA]EGTFTSDYSIYLDKCAAKEFVCWLLAGGPSSGAPPPSK-NH2; linker 17-24 via CH2CONH(CH2)4NHCOCH2), the 50% effective concentration (EC50) in assay [1] and in assay [3] was 0.02 nM throughout.
